According to PubChem BioAssay (NCI):
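All cell lines were grown in 96-well plates and treated with compound for 48 hours. GI50 marks 50% less growth. TGI: concentration producing complete growth inhibition.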

How the values were obtained:
Assay in all cases: DTP human tumour cell line panel, 48 h
[1] = test system: 786-0 renal
[2] = test system: A498 renal
[3] = test system: A549 NSCLC
[4] = test system: ACHN renal
[5] = test system: BT-549 breast
[6] = test system: CAKI-1 renal
[7] = test system: CCRF-CEM leukemia
[8] = test system: COLO 205 colon
[9] = test system: DU-145 prostate
[10] = test system: HCC-2998 colon
[11] = test system: HCT-116 colon
[12] = test system: HCT-15 colon
[13] = test system: HL-60(TB) leukemia
[14] = test system: HOP-62 NSCLC
[15] = test system: HOP-92 NSCLC
[16] = test system: HS 578T breast
[17] = test system: HT29 colon
[18] = test system: IGROV1 ovarian
[19] = test system: K-562 leukemia
[20] = test system: KM12 colon
[21] = test system: LOX IMVI melanoma
[22] = test system: M14 melanoma
[23] = test system: MALME-3M melanoma
[24] = test system: MCF7 breast
[25] = test system: MDA-MB-231 breast
[26] = test system: MDA-MB-435
[27] = test system: MOLT-4 leukemia
[28] = test system: NCI-H226 lung
[29] = test system: NCI-H23 lung
[30] = test system: NCI-H460 lung
[31] = test system: NCI-H522 lung
[32] = test system: NCI/ADR-RES ovarian
[33] = test system: OVCAR-3 ovarian
[34] = test system: OVCAR-4 ovarian
[35] = test system: OVCAR-5 ovarian
[36] = test system: OVCAR-8 ovarian
[37] = test system: PC-3 prostate
[38] = test system: RPMI-8226 leukemia
[39] = test system: RXF 393 renal
[40] = test system: SF-268 CNS
[41] = test system: SF-295 CNS
[42] = test system: SF-539 CNS
[43] = test system: SK-MEL-2 melanoma
[44] = test system: SK-MEL-28 melanoma
[45] = test system: SK-MEL-5 melanoma
[46] = test system: SK-OV-3 ovarian
[47] = test system: SN12C renal
[48] = test system: SNB-19 CNS
[49] = test system: SNB-75 CNS
[50] = test system: SR leukemia
[51] = test system: SW-620 colon
[52] = test system: TK-10 renal
[53] = test system: U251 CNS
[54] = test system: UACC-257 melanoma
[55] = test system: UACC-62 melanoma
[56] = test system: UO-31 renal
[57] = test system: EKVX NSCLC
[58] = test system: T-47D breast

COc1ccc(-c2cn[nH]c2-c2cc(OC)c3c(c2)OCCO3)cc1
GI50 [1]: 369 nM
TGI [1]: 26800 nM
GI50 [2]: 29.8 nM
TGI [2]: 419 nM
GI50 [3]: 102 nM
TGI [3]: 46000 nM
GI50 [4]: 1260 nM
TGI [4]: > 100000 nM
GI50 [5]: 494 nM
TGI [5]: 22000 nM
GI50 [6]: 143 nM
TGI [6]: 58400 nM
GI50 [7]: 298 nM
TGI [7]: > 73900 nM
GI50 [8]: 59.1 nM
TGI [8]: 585 nM
GI50 [9]: 312 nM
TGI [9]: 16900 nM
GI50 [10]: 673 nM
TGI [10]: 20400 nM
GI50 [11]: 70.8 nM
TGI [11]: 13900 nM
GI50 [12]: 63.5 nM
TGI [12]: 22400 nM
GI50 [13]: 81.5 nM
TGI [13]: 13000 nM
GI50 [14]: 264 nM
TGI [14]: 47600 nM
GI50 [15]: 1040 nM
TGI [15]: 28100 nM
GI50 [16]: 231 nM
TGI [16]: 34400 nM
GI50 [17]: 42.1 nM
TGI [17]: 11200 nM
GI50 [18]: 384 nM
TGI [18]: 39600 nM
GI50 [19]: 39.1 nM
TGI [19]: > 100000 nM
GI50 [20]: 50.2 nM
TGI [20]: 7850 nM
GI50 [21]: 581 nM
TGI [21]: 15200 nM
GI50 [22]: 69.4 nM
TGI [22]: 21100 nM
GI50 [23]: 20900 nM
TGI [23]: 58700 nM
GI50 [24]: 61 nM
TGI [24]: 32600 nM
GI50 [25]: 179 nM
TGI [25]: 10900 nM
GI50 [26]: 26.6 nM
TGI [26]: 97.7 nM
GI50 [27]: 706 nM
TGI [27]: 34300 nM
GI50 [28]: 2070 nM
TGI [28]: 23400 nM
GI50 [29]: 599 nM
TGI [29]: > 100000 nM
GI50 [30]: 68.6 nM
TGI [30]: 11400 nM
GI50 [31]: 24.3 nM
TGI [31]: 164 nM
GI50 [32]: 54.9 nM
TGI [32]: 41500 nM
GI50 [33]: 42.3 nM
TGI [33]: 300 nM
GI50 [34]: 1030 nM
TGI [34]: > 100000 nM
GI50 [35]: 683 nM
TGI [35]: > 100000 nM
GI50 [36]: 363 nM
TGI [36]: 21000 nM
GI50 [37]: 128 nM
TGI [37]: 39000 nM
GI50 [38]: 373 nM
TGI [38]: 25200 nM
GI50 [39]: 219 nM
TGI [39]: 2770 nM
GI50 [40]: 1030 nM
TGI [40]: > 74200 nM
GI50 [41]: 73.5 nM
TGI [41]: 12100 nM
GI50 [42]: 124 nM
TGI [42]: 441 nM
GI50 [43]: 68.5 nM
TGI [43]: 16100 nM
GI50 [44]: 2120 nM
TGI [44]: 46300 nM
GI50 [45]: 71.7 nM
TGI [45]: 8080 nM
GI50 [46]: 400 nM
TGI [46]: 35500 nM
GI50 [47]: 1280 nM
TGI [47]: 73700 nM
GI50 [48]: 330 nM
TGI [48]: > 100000 nM
GI50 [49]: 122 nM
TGI [49]: 738 nM
GI50 [50]: 47.3 nM
TGI [50]: 14200 nM
GI50 [51]: 50.6 nM
TGI [51]: > 72500 nM
GI50 [52]: 457 nM
TGI [52]: 48400 nM
GI50 [53]: 159 nM
TGI [53]: 12200 nM
GI50 [54]: 14800 nM
TGI [54]: 55400 nM
GI50 [55]: 75.8 nM
TGI [55]: 17600 nM
GI50 [56]: 734 nM
TGI [56]: 42000 nM

Nc1ccc2[nH]c(C(=O)N3CC(CCl)c4c3cc(N)c3ccccc43)cc2c1 (stereo not given)
TGI [2]: 28.8 nM
TGI [4]: 10.3 nM
TGI [5]: < 24.4 nM
TGI [7]: > 100000 nM
TGI [8]: 22.3 nM
TGI [9]: < 10 nM
TGI [57]: 31.3 nM
TGI [10]: < 10 nM
TGI [11]: 1090 nM
TGI [12]: 1280 nM
TGI [13]: 16.2 nM
TGI [14]: 55.6 nM
TGI [16]: 57 nM
TGI [17]: < 22.9 nM
TGI [19]: > 100000 nM
TGI [20]: 71.4 nM
TGI [21]: 14.5 nM
TGI [24]: 153 nM
TGI [26]: 25 nM
TGI [28]: < 10 nM
TGI [29]: < 10 nM
TGI [30]: < 10 nM
TGI [32]: < 10 nM
TGI [33]: > 100000 nM
TGI [34]: < 10 nM
TGI [35]: > 100000 nM
TGI [36]: 23.6 nM
TGI [38]: < 25.5 nM
TGI [40]: < 10 nM
TGI [41]: < 10 nM
TGI [45]: < 41.4 nM
TGI [46]: 1210 nM
TGI [47]: 32.5 nM
TGI [48]: < 48.9 nM
TGI [51]: 124 nM
TGI [58]: 455 nM
TGI [53]: 147 nM
TGI [55]: 10.1 nM
